In patent US20260234107A1, “TRYPTAMINES AND METHODS OF TREATING MOOD DISORDERS” (priority 2022, published 2026):
Where two headings read alike, the source gives them in different places.

Assays:
[1] = system: monoamine oxidase A and B (MAO-A and MAO-B); experiment: Stability in the presence of monoamine oxidases (human liver mitochondria preparation); design: half-life / microsomal CLint: dose or concentration left out as unconfirmed; conditions: for stability in the presence of MAO (in words): human liver mitochondria preparation; for Remaining (t = 60 min) / half-life / microsomal CLint: human liver mitochondria; for half-life / microsomal CLint: human, pH 7.4; for CLint(MAO) / t1/2: human liver mitochondria 0.30 mg protein/mL, 37° C.
Description: Liver Mitochondria Incubations. Human liver mitochondria (Xenotech H0610.M) were used.

5-HT2A [2] = target: T1, 5-HT2A (Homo sapiens, UniProt P28223); experiment: 5-HT2A receptor radioligand binding ([3H]ketanserin)
T1 sequence (P28223 whole entry): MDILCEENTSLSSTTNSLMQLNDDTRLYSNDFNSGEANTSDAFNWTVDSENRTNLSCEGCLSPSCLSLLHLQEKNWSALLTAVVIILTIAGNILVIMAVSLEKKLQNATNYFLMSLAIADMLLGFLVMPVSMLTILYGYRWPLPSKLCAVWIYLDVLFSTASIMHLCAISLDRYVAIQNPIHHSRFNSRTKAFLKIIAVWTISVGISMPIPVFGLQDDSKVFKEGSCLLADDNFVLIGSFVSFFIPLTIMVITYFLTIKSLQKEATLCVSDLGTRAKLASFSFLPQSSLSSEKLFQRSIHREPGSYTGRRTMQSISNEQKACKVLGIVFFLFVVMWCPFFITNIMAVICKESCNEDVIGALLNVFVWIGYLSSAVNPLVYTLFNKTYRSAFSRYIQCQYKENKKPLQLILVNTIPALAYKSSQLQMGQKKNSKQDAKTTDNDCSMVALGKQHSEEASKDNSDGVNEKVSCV
Description: The binding affinities of disclosed compounds at the ketanserin binding site of the 5-HT2A receptor were determined in radioligand binding experiments.
Method. Affinity of the test compounds for the 5-HT2A receptor was determined in radioligand binding experiments with [^3H]ketanserin by WuXi AppTec (Hong Kong) Limited, using methods adapted from the literature and under conditions described in Table 4.

5-HT2B = target: T2, 5-HT2B (Homo sapiens, UniProt P41595); experiment: FLIPR Ca2+ flux agonist assay at 5-HT2B; format: cell-based; conditions: for 5-HT2B % Act @ Max Dose: HEK293, max dose
T2 construct: host or cells: HEK293
T2 sequence (P41595 whole entry, species assumed): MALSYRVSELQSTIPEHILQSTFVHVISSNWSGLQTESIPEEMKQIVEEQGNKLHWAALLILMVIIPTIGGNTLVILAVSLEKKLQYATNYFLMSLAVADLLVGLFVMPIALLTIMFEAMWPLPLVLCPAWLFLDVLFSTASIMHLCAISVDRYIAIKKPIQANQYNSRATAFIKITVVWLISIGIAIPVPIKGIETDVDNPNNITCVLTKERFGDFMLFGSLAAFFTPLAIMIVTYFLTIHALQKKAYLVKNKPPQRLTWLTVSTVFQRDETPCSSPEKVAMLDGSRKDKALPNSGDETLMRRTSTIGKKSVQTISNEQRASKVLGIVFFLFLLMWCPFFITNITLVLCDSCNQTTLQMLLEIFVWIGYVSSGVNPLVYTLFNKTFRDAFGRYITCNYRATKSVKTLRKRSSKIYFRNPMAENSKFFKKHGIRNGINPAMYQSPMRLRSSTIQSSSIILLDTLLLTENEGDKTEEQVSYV

5-HT2C receptor [3] = target: T3, 5-HT2C receptor (Homo sapiens, UniProt P28335); experiment: cell-based; format: cell-based; conditions: Ca2+ flux
T3 sequence (P28335 33-458): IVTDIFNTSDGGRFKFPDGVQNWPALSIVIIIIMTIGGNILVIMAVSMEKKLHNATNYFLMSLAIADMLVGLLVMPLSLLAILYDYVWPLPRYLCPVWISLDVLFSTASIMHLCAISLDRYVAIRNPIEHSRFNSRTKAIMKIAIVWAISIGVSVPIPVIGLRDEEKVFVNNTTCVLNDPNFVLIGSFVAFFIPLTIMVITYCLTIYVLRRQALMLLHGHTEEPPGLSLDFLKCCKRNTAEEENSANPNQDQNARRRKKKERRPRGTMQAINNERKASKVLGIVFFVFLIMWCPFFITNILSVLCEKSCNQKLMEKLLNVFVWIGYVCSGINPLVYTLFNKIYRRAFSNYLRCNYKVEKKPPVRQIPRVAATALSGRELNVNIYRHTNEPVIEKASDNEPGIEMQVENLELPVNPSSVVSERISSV

5-HT1A = target: T4, 5-HT1A (Homo sapiens, UniProt P08908); experiment: FLIPR Ca2+ flux agonist assay at 5-HT1A; format: cell-based; conditions: for 5-HT1A % Act @ Max Dose: Ca2+ flux, CHO cells
T4 construct: host or cells: CHO cells
T4 sequence (P08908 1-422): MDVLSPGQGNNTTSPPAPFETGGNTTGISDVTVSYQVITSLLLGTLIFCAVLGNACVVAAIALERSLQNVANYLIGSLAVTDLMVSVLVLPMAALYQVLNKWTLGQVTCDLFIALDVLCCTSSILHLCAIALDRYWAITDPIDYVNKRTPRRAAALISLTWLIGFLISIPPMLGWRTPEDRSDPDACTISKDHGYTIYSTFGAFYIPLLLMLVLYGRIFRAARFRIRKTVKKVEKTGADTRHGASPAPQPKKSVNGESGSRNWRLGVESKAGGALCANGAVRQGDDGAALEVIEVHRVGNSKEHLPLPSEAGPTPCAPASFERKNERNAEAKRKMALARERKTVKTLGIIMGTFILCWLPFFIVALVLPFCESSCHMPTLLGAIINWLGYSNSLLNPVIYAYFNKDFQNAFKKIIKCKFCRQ

[4] = Stability in mouse brain homogenate; format: in vitro ADME, male CD-1 mice; conditions: for half-life at 1 µM: male, CD-1
[5] = Stability in rat brain homogenate; format: in vitro ADME, male Sprague Dawley rats; conditions: for half-life at 1 µM: male, Sprague Dawley
5-HT2C receptor [6] = target: T3, 5-HT2C receptor; experiment: 5-HT2C receptor radioligand binding ([3H]mesulergine); conditions: for Ki: HEK293 stable cell line, 2 nM [3H]mesulergine; for binding to the 5-HT2C receptor (in words): compared with 5-HT2A receptor binding
Description: The binding affinities of disclosed compounds at the mesulergine binding site of the 5-HT2C receptor were determined in radioligand binding experiments.
Method. Affinity of the test compounds for the 5-HT2C receptor was determined in radioligand binding experiments with [^3H]mesulergine by WuXi AppTec (Hong Kong) Limited, using methods adapted from the literature and under conditions described in Table 11.

5-HT2A [7] = target: T1, 5-HT2A; experiment: FLIPR Ca2+ flux agonist assay at 5-HT2A; format: cell-based; design: host or cells: HEK293; conditions: for 5-HT2A % Act @ Max Dose: HEK293, max dose
[8] = Metabolic stability in human liver microsomes (HLM); design: microsomal CLint / half-life: dose or concentration left out as unconfirmed; conditions: for half-life / microsomal CLint: both, human, pooled human liver microsomes, pH 7.4
[9] = Plasma pharmacokinetics in mice after subcutaneous administration; format: in vivo, male C57BL/6 mice; conditions: SC 10 mg/kg
Source text: Animals. […] Four mice were housed in each cage. […] All animals were provided laboratory rodent diet. […] Animals were randomly assigned to treatment groups.

rat synaptosomes = experiment: Serotonin (5-HT) release from rat synaptosomes; format: biochemical, Male Sprague-Dawley rats; conditions: for EC50: rat synaptosomes preloaded with [3H]5-HT; for % Release @ Max Dose (10 μM): rat synaptosomes
Description: Disclosed compounds were assessed for their ability to release serotonin (5-HT) from […] (Table 9). Potency and efficacy for 5-HT release varied substantially depending on the specific compound. […] However, there was also substantial variability among 4-hydroxy compounds.
Synaptosome 5-HT Release Assay. Synaptosome release assays were conducted according to modifications of previously described procedures (Partilla et al. (2016). Interrogating the Activity of Ligands at Monoamine Transporters in Rat Brain Synaptosomes. In Neurotransmitter Transporters (pp. 41-52). Springer.). Briefly, synaptosomes were prepared from rat brains. Male Sprague-Dawley rats were rendered unconscious with CO2 and their brains were immediately removed. The cerebella were discarded and the whole brains (minus striatum) were placed in ice-cold 0.32 M sucrose (10 mL per brain) and gently homogenized by hand. The homogenate of each brain was centrifuged at 1,000×g at 4° C. for 10 mins and the resulting supernatant was diluted with ice-cold 0.32 M sucrose to a total volume of 10 mL to provide the synaptosome solution. Synaptosomes were then preloaded with 5 nM [^3H]5-HT in the presence of selective uptake inhibitors of DAT (50 nM GBR12935), NET (100 nM nomifensine), and VMAT2 (1 μM reserpine) in Krebs phosphate buffer (KPB). The incubations were allowed to reach equilibrium for 2 h at 25° C. For the release reactions, 425 μL of preloaded synaptosomes were added to test tubes containing 75 μL of test drugs diluted in KPB containing 1 mg/mL BSA. After 10 mins, the release reaction was stopped using a cell harvester by rapid vacuum filtration over GF/B filter paper presoaked in wash buffer (10 mM Tris-HCl, pH 7.4, 150 mM NaCl) and the filters were washed with additional wash buffer. Filters were dried for 1 h at 60° C. and retained radioactivity was quantified using a MicroBeta 2 liquid scintillation counter. The amount of retained radioactivity was inversely proportional to the extent of release.

[10] = HEK293 stable cell line, 1 nM [3H]ketanserin, read-out: 5-HT2A Ki (nM) ([3H]Ketanserin)
[11] = mouse brain homogenate, 1 μM, 37° C.
[12] = rat brain homogenate, 1 μM, 37° C.
[13] = mouse, plasma, male C57BL/6 mice
[14] = HLM 0.50 mg protein/mL, NADPH, 37° C., 60 minutes
[15] = Ca2+ flux, HEK293, read-out: 5-HT2A EC50

Structure (SMILES) | stability in the presence of MAO (in words) [1] | Remaining (t = 60 min) [1] [%] | half-life [1] [h] | microsomal CLint [1] [µL/min/mg] | Ki (5-HT2A [2]; [10]) [nM] | EC50 (5-HT2B) [nM] | 5-HT2B % Act @ Max Dose (5-HT2B; Ca2+ flux) [%] | EC50 (5-HT2C receptor [3]) [nM] | agonism at 5-HT2C (in words) (5-HT2C receptor [3]) | 5-HT2C % Act @ Max Dose (5-HT2C receptor [3]) [%] | EC50 (5-HT1A) [nM] | 5-HT1A % Act @ Max Dose (5-HT1A) [%] | half-life at 1 µM [4, 11] [h] | % Compound Remaining (after 120 min) [4, 11] [%] | half-life at 1 µM [5, 12] [h] | % Compound Remaining (after 120 min) [5, 12] [%] | half-life [8] [h] | microsomal CLint [8] [µL/min/mg] | EC50 (rat synaptosomes) [nM] | % Release @ Max Dose (10 μM) (rat synaptosomes) [%] | also measured
CC(C)n1cc(CCN(C)C)c2c(O)cc(F)cc21 [Compound 10, 3-(2-(dimethylamino)ethyl)-6-fluoro-1-isopropyl-1H-indol-4-ol] | intermediate stability | 55.7 | 1.31 | 29.4 | 1190 | > 10000 | 1.99 | 30.1 | potent partial agonism | 43.06 | > 100000 | 1.85 | > 4.82 | 80.9 | 4.49 | 71.4 | 1.78 | 12.9 | – | – | Ki (5-HT2C receptor [6]): 10.5 nM; binding to the 5-HT2C receptor (in words) (5-HT2C receptor [6]): potent binding to the 5-HT2C receptor; EC50 (5-HT2A [7]): > 1000 nM; 5-HT2A % Act @ Max Dose (5-HT2A [7]; Ca2+ flux): 1.28%
CCN(C)CCc1c[nH]c2cccc(O)c12 [Compound 4-HO-MET, reference compound] | stable | 112.3 | – | – | – | – | 1.1 | 37.8 | – | 95.0 | – | – | – | 16.7 | – | 20.9 | – | – | 496 | 56.9 | AUC(0-t) [9, 13]: 1410 ng·h/mL; Cmax [9, 13]: 1160 ng/mL; Tmax ([9]; plasma, male C57BL/6 mice): 0.08 h; t1/2 ([9]; plasma, male C57BL/6 mice): 1.1 h; CLint(MAO) [1]: <15.9 µL/min/mg; t1/2 [1]: >2.42 h; t1/2 [4, 11]: 0.763 h; t1/2 [5, 12]: 0.883 h; Clint [8, 14]: <9.6 µL/min/mg; t1/2 [8, 14]: >2.42 h
CNCCc1cn(C(C)C)c2cc(F)cc(O)c12 [Compound 12, 6-fluoro-1-isopropyl-3-(2-(methylamino)ethyl)-1H-indol-4-ol] | – | 104.0 | > 2.42 | < 15.9 | > 1230 | > 10000 | 1.74 | 25.3 | potent partial agonism | 57.17 | > 100000 | 3.96 | 4.39 | 72.3 | 4.14 | 70.4 | > 2.42 | < 9.6 | – | – | Ki (5-HT2C receptor [6]): 30.8 nM; binding to the 5-HT2C receptor (in words) (5-HT2C receptor [6]): potent binding to the 5-HT2C receptor; EC50 (5-HT2A [7]): > 1000 nM; 5-HT2A % Act @ Max Dose (5-HT2A [7]; Ca2+ flux): 10.55%
CCN(C)CCc1c[nH]c2ccccc12 [MET, N-methyl-N-ethyltryptamine, reference compound] | more stable | 84.5 | – | – | – | – | 11.9 | 28.3 | – | – | 57900 | 71.4 | – | – | – | – | – | – | 183 | 71.00 | CLint(MAO) [1]: <15.9 µL/min/mg; t1/2 [1]: >2.42 h; Ki (5-HT2A [2]): 128 nM; EC50 (5-HT2A [7]; [15]): 17.1 nM
Oc1cccc2[nH]cc(CCNC3CC3)c12 [Compound 4, 3-(2-(cyclopropylamino)ethyl)-1H-indol-4-ol] | intermediate stability | 72.7 | 1.91 | 20.2 | – | – | 4.08 | – | – | – | 6560 | 58.72 | 0.883 | 19.4 | 1.05 | 25.2 | 1.36 | 17 | 1250 | 38.87 | peak plasma concentration compared with 5-F-DMT (in words) ([9]; mice): much higher peak concentrations than 5-F-DMT; AUC(0-t) [9, 13]: 665 ng·h/mL; Cmax [9, 13]: 1220 ng/mL; half-life [9, 13]: 0.62 h; Tmax ([9]; mouse, plasma, male C57BL/6 mice, read-out: Tmax): 0.25 h; Ki (5-HT2A [2]): 339 nM; agonism at 5-HT2B (in words) (5-HT2B; Ca2+ flux): did not; stability in mouse brain homogenate (in words) [4]: intermediate stability; stability in rat brain homogenate (in words) [5]: intermediate stability; EC50 (5-HT2A [7]; [15]): 8.7 nM
